Laboratory results taken from US12616656B2, “Adventitial painting modality of local drug delivery to abate intimal hyperplasia” (University of Virginia Patent Foundation, priority 2021, dated 2026).

Legend:
[1] = test system: IH in a rat model; settings: perivascular administration; cited from earlier work
[2] = test system: collagen; assay: Masson's trichrome staining, collagen density in the artery; format: in vivo, Sprague-Dawley rats; settings: Mode-1, 14 days
Procedure: Four to six cross-sections cut from different locations (see detailed description above) from the balloon-injured CCA per each animal were used for Masson's trichrome staining. The color images were transformed into monochrome images at an 8-bit scale using Image J. After adjusting the threshold consistent through the analysis, integrated density of interest was measured. Data values from 6 sections were averaged for each animal, and averages from total animals in a group were used to calculate mean+SEM and statistical analysis.

[3] = test system: CD68; assay: Immunostaining of the inflammation marker CD68; format: in vivo, Sprague-Dawley rats
Procedure: (§1) Paraffin-embedded specimens were processed into 5-μm thick sections for immunostaining. The slides were deparaffinized and hydrated through series of xylenes and graded alcohol. Antigens were retrieved using citrate buffer for 2 hours at 80° C. in a high-pressure cooker. Endogenous peroxidase was blocked by incubation with 3% H2O2 for 10 min. Following application of a monoclonal antibody against either cleaved Caspase 3 (9661, Cell Signaling Technology, Inc., Danvers, MA) or CD68 (T-3003, BMA Biomedicls, Augst, Switzerland), ImmPRESS HRP Anti-Rabbit IgG (Peroxidase) Polymer Detection Kit (MP-7451, Vector Laboratories Inc., Burlingame, CA) was used as the secondary antibody. The staining intensity was visualized using ImmPACT DAB Peroxidase (HRP) Substrate (SK-4105, Vector Laboratories). Data values from 6 different portions were averaged for each animal, and averages from total animals in a group were used to calculate mean+SEM and statistical analysis.

[4] = test system: active (cleaved) caspase-3; assay: Immunostaining of the apoptosis marker active (cleaved) caspase-3; format: in vivo, Sprague-Dawley rats; settings: Mode-3 painting, 14 days
Procedure: as §1

| Compound | IH [1] | fibrosis (adventitial collagen accumulation) [2] | number of CD68-positive cells ([3]; Mode-1 and Mode-2, 14 days) | inflammation marker (CD68 staining) ([3]; Mode-3 painting, 14 days) | apoptosis marker (caspase-3 positive cells) [4] |
| --- | --- | --- | --- | --- | --- |
| CC(C)N(C[C@H]1O[C@@H](n2cnc3c(N)ncnc32)[C@H](O)[C@@H]1O)[C@H]1C[C@@H](CCc2nc3cc(C(C)(C)C)ccc3[nH]2)C1 [Pinometostat, pinometostat] | reduced IH |  |  |  |  |
| CO[C@H]1C[C@@H]2CC[C@@H](C)[C@@](O)(O2)C(=O)C(=O)N2CCCC[C@H]2C(=O)O[C@H]([C@H](C)C[C@@H]2CC[C@@H](O)[C@H](OC)C2)CC(=O)[C@H](C)/C=C(\C)[C@@H](O)[C@@H](OC)C(=O)[C@H](C)C[C@H](C)/C=C/C=C/C=C/1C [Rapamycin] |  | alleviated this fibrotic severity | the difference was abolished | reduced CD68 staining in the vessel wall | lowered the overall number of caspase-3 positive cells |
